Counter-ions that a name gives are not always drawn.
Target: T1, Human M4 (Homo sapiens, UniProt P08173)
T1 sequence (P08173 1-479): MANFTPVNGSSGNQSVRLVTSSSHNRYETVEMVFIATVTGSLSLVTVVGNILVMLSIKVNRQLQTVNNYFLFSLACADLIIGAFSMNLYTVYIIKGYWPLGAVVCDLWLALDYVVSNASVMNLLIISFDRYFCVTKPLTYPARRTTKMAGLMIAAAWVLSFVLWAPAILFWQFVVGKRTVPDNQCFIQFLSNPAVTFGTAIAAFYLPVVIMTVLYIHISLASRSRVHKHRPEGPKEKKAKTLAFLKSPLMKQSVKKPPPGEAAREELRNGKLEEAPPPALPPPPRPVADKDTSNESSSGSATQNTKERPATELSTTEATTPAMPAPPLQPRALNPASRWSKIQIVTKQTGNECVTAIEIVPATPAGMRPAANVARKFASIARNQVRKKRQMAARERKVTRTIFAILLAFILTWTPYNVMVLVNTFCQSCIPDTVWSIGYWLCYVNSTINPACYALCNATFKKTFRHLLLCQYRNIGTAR
Test: mAChR M4 cell-based functional assay (calcium flux, potentiation of EC20 acetylcholine response)
Parameters: Emax: dose or concentration left out as unconfirmed

SMILES | EC50 [nM] | Emax [%]
Cc1cc(C)c2c(n1)sc1c(N3CCCC3)nccc12 [Compound 2, 2,4-dimethyl-8-(pyrrolidin-1-yl)thieno[2,3-b:5,4-c′]dipyridine] | 233 | 97.8
Cc1nnc2sc3c(NC4CN(c5ccc(C#N)cn5)C4)nccc3c2c1C [Compound 22, 6-[3-[(3,4-dimethylpyrido[4′,3′:4,5]thieno[2,3-c]pyridazin-8-yl)amino]azetidin-1-yl]pyridine-3-carbonitrile] | 16.9 | 117
Cc1nnc2sc3c(NC4CC4)nccc3c2c1C [Compound 8, N-cyclopropyl-3,4-dimethyl-pyrido[4′,3′:4,5]thieno[2,3-c]pyridazin-8-amine hydrochloride] | 12.1 | 74.8
Cc1cc(C)c2c(n1)sc1c(NC3CCCC3)nccc12 [Compound 1, N-cyclopentyl-2,4-dimethylthieno[2,3-b: 5,4-c]dipyridin-8-amine] | 124 | 67
Cc1nnc2sc3c(NCc4ccc(C(C)(C)O)cc4)nccc3c2c1C [Compound 15, 2-[4-[[(3,4-dimethylpyrido[4′,3′:4,5]thieno[2,3-c]pyridazin-8-yl)amino]lmethyl]phenyl]propan-2-ol] | 34.3 | 97.4
Cc1c(Cl)nnc2sc3c(NC4CN(c5ncc(C(F)(F)F)cn5)C4)nccc3c12 [Compound 33, 3-chloro-4-methyl-N-(1-(5-(trifluoromethyl)pyrimidin-2-yl)azetidin-3-yl)pyrido[4′,3′:4,5]thieno[2,3-c]pyridazin-8-amine, 2,2,2-trifluoroacetic acid salt] | 53.9 | 85.3
Cc1nnc2sc3c(NCc4ccc(C(=O)N5CCOCC5)cc4)nccc3c2c1C [Compound 13, [4-[[(3,4-dimethylpyrido[4′,3′:4,5]thieno[2,3-c]pyridazin-8-yl)amino]methyl]phenyl]-morpholino-methanone] | 66 | 81.9
Cc1nnc2sc3c(NCc4ccc(F)c(F)c4)nccc3c2c1C [Compound 16, N-[(3,4-difluorophenyl)methyl]-3,4-dimethyl-pyrido[4′,3′:4,5]thieno[2,3-c]pyridazin-8-amine hydrochloride] | 194 | 81.5
COc1ccc(CNc2nccc3c2sc2nnc(C)c(C)c23)cc1 [Compound 9, N-[(4-methoxyphenyl)methyl]-3,4-dimethyl-pyrido[4′,3′:4,5]thieno[2,3-c]pyridazin-8-amine hydrochloride] |  | 76.8
Cc1nnc2sc3c(NC4CN(c5ncc(F)cn5)C4)nccc3c2c1C [Compound 12, N-[1-(5-fluoropyrimidin-2-yl)azetidin-3-yl]-3,4-dimethyl-pyrido[4′,3′:4,5]thieno[2,3-c]pyridazin-8-amine hydrochloride] | 18.2 | 77.4
COc1ccc(CNc2nccc3c2sc2nnc(C)c(C)c23)cc1F [Compound 14, N-[(3-fluoro-4-methoxy-phenyl)methyl]-3,4-dimethylpyrido[4′,3′:4,5]thieno[2,3-c]pyridazin-8-amine hydrochloride] | 14.3 | 91.3
Cc1nnc2sc3c(N4CCCC4)nccc3c2c1C [Compound 6, 3,4-dimethyl-8-pyrrolidin-1-yl-pyrido[4′,3′:4,5]thieno[2,3-c]pyridazine hydrochloride] | 23.6 | 73
COc1nnc2sc3c(NC4CCC4)nccc3c2c1C [Compound 39, N-cyclobutyl-3-methoxy-4-methylpyrido[4′,3′:4,5]thieno[2,3-c]pyridazin-8-amine] | 23.4 | 93.2
Cc1cc(C)c2c(n1)sc1c(NC3CCC3)nccc12 [Compound 3, N-cyclobutyl-2,4-dimethylthieno[2,3-b:5,4-c′]dipyridin-8-amine dihydrochloride] | 84.9 | 89.8
COc1ccc(CNc2nccc3c2sc2nnc(OC)c(C)c23)cc1 [Compound 37, 3-Methoxy-N-(4-methoxybenzyl)-4-methylpyrido[4′,3′:4,5]thieno[2,3-c]pyridazin-8-amine] | 562 | 76.4
Cc1nc2sc3c(N4CCCC4)nccc3c2c(C)c1Cl [Compound 30, 3-chloro-2,4-dimethyl-8-(pyrrolidin-1-yl)thieno[2,3-b:5,4-c′]dipyridine] | 714 | 79.5
Cc1nnc2sc3c(NCc4ccc(C(C)(C)O)c(F)c4)nccc3c2c1C [Compound 20, 2-[4-[[(3,4-dimethylpyrido[4′,3′:4,5]thieno[2,3-c]pyridazin-8-yl)amino]methyl]-2-fluoro-phenyl]propan-2-ol] | 39.6 | 85.6
Cc1cc(C)c2c(n1)sc1c(NCc3ccc(C(C)(C)O)cc3F)nccc12 [Compound 27, 2-(4-(((2,4-dimethylthieno[2,3-b:5,4-c′]dipyridin-8-yl)amino)methyl)-3-fluorophenyl)propan-2-ol] | 1100 | 102
Cc1nnc2sc3c(NC4CCC4)nccc3c2c1C [Compound 7, N-cyclobutyl-3,4-dimethyl-pyrido[4′,3′:4,5]thieno[2,3-c]pyridazin-8-amine hydrochloride] | 59.8 | 80.2

Next, values leading:

EC50 [nM] | Emax [%] | SMILES
150 | 80.1 | Cc1cc(C)c2c(n1)sc1c(NC3CN(c4ncc(C(F)(F)F)cn4)C3)nccc12 [Compound 24, 2,4-dimethyl-N-(1-(5-(trifluoromethyl)pyrimidin-2-yl)azetidin-3-yl)thieno[2,3-b:5,4-c′]dipyridin-8-amine]
442 | 56.1 | Cc1c(C(F)F)nnc2sc3c(N4CC(c5ccncc5)C4)nccc3c12 [Compound 42, 3-(difluoromethyl)-4-methyl-8-(3-(pyridin-4-yl)azetidin-1-yl)pyrido[4′3′:4,5]thieno[2,3-c]pyridazine]
58.1 | 77.5 | COc1ccc(CNc2nccc3c2sc2nnc(Cl)c(C)c23)cc1 [Compound 32, 3-chloro-N-(4-methoxybenzyl)-4-methylpyrido[4′,3′:4,5]thieno[2,3-c]pyridazin-8-amine]
78.9 | 80 | Cc1nnc2sc3c(NCc4ccc(C(C)(C)O)cc4F)nccc3c2c1C [Compound 21, 2-[4-[[(3,4-dimethylpyrido[4′,3′:4,5]thieno[2,3-c]pyridazin-8-yl)amino]methyl]-3-fluoro-phenyl]propan-2-ol]
280 | 80.6 | COc1nnc2sc3c(NC4CN(c5ncc(C(F)(F)F)cn5)C4)nccc3c2c1C [Compound 38, 3-methoxy-4-methyl-N-(1-(5-(trifluoromethyl)pyrimidin-2-yl)azetidin-3-yl)pyrido[4′,3′:4,5]thieno[2,3-c]pyridazin-8-amine]
1880 | 54.8 | Cc1c(C(F)F)nnc2sc3c(N4CC5(COC5)C4)nccc3c12 [Compound 41, 6-(3-(difluoromethyl)-4-methylpyrido[4′,3′:4,5]thieno[2,3-c]pyridazin-8-yl)-2-oxa-6-azaspiro[3.3]heptane]
327 | 101 | Cc1cc(C)c2c(n1)sc1c(NCc3ccc(C(C)(C)O)cc3)nccc12 [Compound 26, 2-(4-(((2,4-dimethylthieno[2,3-b:5,4-c′]dipyridin-8-yl)amino)methyl)phenyl)propan-2-ol]
> 10000 | 90.3 | COc1ccc(CNc2nccc3c2sc2nc(C)cc(C)c23)cc1F [Compound 25, N-(3-fluoro-4-methoxybenzyl)-2,4-dimethylthieno[2,3-b:5,4-c′]dipyridin-8-amine]
202 | 81.9 | Cc1cc(C)c2c(n1)sc1c(N(C)C)nccc12 [Compound 4, N,N,2,4-tetramethylthieno[2,3-b:5,4-c′]dipyridin-8-amine]
374 | 55.9 | Cc1c(C(F)F)nnc2sc3c(N4CCCC4)nccc3c12 [Compound 40, 3-(Difluoromethyl)-4-methyl-8-(pyrrolidin-1-yl)pyrido[4′,3′:4,5]thieno[2,3-c]pyridazine]
185 | 97.6 | COc1ccc(CNc2nccc3c2sc2nnc(Cl)c(C)c23)cc1F [Compound 36, 3-chloro-N-(3-fluoro-4-methoxybenzyl)-4-methylpyrido[4′,3′:4,5]thieno[2,3-c]pyridazin-8-amine]
12.3 | 80.3 | Cc1nnc2sc3c(NC4CCCC4)nccc3c2c1C [Compound 5, N-Cyclopentyl-3,4-dimethyl-pyrido[4′,3′:4,5]thieno[2,3-c]pyridazin-8-amine Hydrochloride]
1030 | 72.8 | Cc1nnc2sc3c(NCc4ccc(OC(F)(F)F)cc4)nccc3c2c1C [Compound 11, 3,4-dimethyl-N-[[4-(trifluoromethoxy)phenyl]methyl] pyrido[4′,3′:4,5]thieno[2,3-c]pyridazin-8-amine hydrochloride]
4970 | 60.8 | COc1ccc(CNc2nccc3c2sc2nc(C)c(Cl)c(C)c23)cc1 [Compound 28, 3-Chloro-N-(4-methoxybenzyl)-2,4-dimethylthieno[2,3-b:5,4-c′]dipyridin-8-amine]
164 | 74.2 | Cc1nnc2sc3c(NC4CN(c5ccc(F)c(F)c5)C4)nccc3c2c1C [Compound 19, N-[1-(3,4-difluorophenyl)azetidin-3-yl]-3,4-dimethyl-pyrido[4′,3′:4,5]thieno[2,3-c]pyridazin-8-amine hydrochloride]
